The record followed here is US7612089B2, “Tetrahydroisoquinolines as factor Xa inhibitors” (Portola Pharmaceuticals, Inc., priority 2004, dated 2009).

For this experiment, the target named is T1, human plasma protein factor Xa (Homo sapiens, UniProt P00742).
T1 construct: The human plasma protein factor Xa was purchased; purchased Haematologic Technologies (Essex Junction, Vt.); host or cells: human plasma
The experiment in a line: Factor Xa IC50 determination (cleavage of paranitroanilide substrate S-2765). Format: biochemical. The conditions noted are these: fXa 1 nM, S2765 100 μM, Tris buffered saline pH 7.4, room temperature. An excerpt:
This example illustrates methods for evaluating the compounds of the invention, along with results obtained for such assays. The in vitro and in vivo Factor Xa isoform activities of the inventive compounds can be determined by various procedures known in the art, such as a test for their ability to inhibit the activity of the Factor Xa isoform. […] The IC50 value is the concentration (in nM) of the compound required to provide 50% inhibition of Factor Xa isoform.
An in vitro assay for detecting and measuring inhibition activity against Factor Xa is as follows:
IC50 and Ki Determinations:
The substrate S-2765 (Z-D-Arg-Gly-Arg-pNA.HCl) was obtained from Diapharma (West Chester, Ohio).
The human plasma protein factor Xa was purchased from Haematologic Technologies (Essex Junction, Vt.).
All assays, which are performed in 96-well microtiter plates, measure proteolytic activity of the enzyme (factor Xa) by following cleavage of paranitroanilide substrate. The assay buffer used for proteolytic assays was Tris buffered saline (20 mM Tris, 150 mM NaCl, 5 mM CaCl2, 0.1% Bovine serum albumin (BSA), 5% Dimethly Sulfoxide (DMSO) pH 7.4). In a 96-well microtiter plate, inhibitor was serially diluted to give a range of concentrations from 0.01 nM to 10 μM (final). Duplicate sets of wells were assayed and control wells without inhibitor were included. Enzyme was added to each well, (fXa concentration=1 nM), the plate was shaken for 5 seconds and then incubated for 5 minutes at room temperature. S2765 was added (100 μM final) and the plate was shaken for 5 seconds (final liquid volume in each well was 200 μl). The degree of substrate hydrolysis was measured at 405 nm on a Thermomax plate reader (Molecular Devices, Sunnyvale, Calif.) for 2 minutes. The initial velocities (mOD/min), for each range of inhibitor concentrations, were fitted to a four parameter equation using Softmax data analysis software. The parameter C, derived from the resulting curve-fit, corresponded to the concentration for half maximal inhibition (IC50).

T1 sequence (P00742 235-488 limits assumed): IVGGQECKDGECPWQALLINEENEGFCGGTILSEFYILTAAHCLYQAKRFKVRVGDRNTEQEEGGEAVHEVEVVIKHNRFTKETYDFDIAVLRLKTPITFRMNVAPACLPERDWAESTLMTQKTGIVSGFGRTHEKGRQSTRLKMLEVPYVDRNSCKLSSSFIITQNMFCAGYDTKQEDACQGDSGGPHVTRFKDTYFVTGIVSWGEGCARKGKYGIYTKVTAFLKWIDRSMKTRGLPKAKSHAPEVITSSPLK
T1 sequence (P00742 41-179 partner limits assumed): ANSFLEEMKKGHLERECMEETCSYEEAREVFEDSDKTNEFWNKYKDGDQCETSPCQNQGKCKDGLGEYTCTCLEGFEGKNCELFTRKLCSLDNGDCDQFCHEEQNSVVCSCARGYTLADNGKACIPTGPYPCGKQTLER

The term IC50 denotes the point on the concentration scale where inhibition reaches its midpoint. The low end stands for inhibition by little substance, the high end for a need for much substance. With `CN(C)C(=N)c1ccc(NC(=O)C2Cc3sccc3CN2C(=O)Nc2ccc(Cl)cc2)cc1` (stereo not drawn) [Example 26, N-[4-(dimethylaminoimino)phenyl]-5N-(4-chlorophenylaminocarbonyl)-4,5,6,7-tetrahydro-thieno[3,2-c]pyridine-6-carboxamide], the IC50 is at most 100 nM. Under `CN1CCCN(c2ccc(NC(=O)C3Cc4sccc4CN3C(=O)Nc3ccc(Cl)cc3)cc2)CC1` (stereo not drawn) [Example 27, N-[4-(4-methyl-homopiperazinyl)]phenyl-5N-(4-chlorophenylaminocarbonyl)-4,5,6,7-tetrahydro-thieno[3,2-c]pyridine-6-carboxamide] stands at most 100 nM; under `CN1CCN=C1c1ccc(NC(=O)C2c3ccccc3CN2C(=O)Nc2ccc(Cl)cc2)cc1` (stereo not drawn) [Example 28, N-[4-(1-methyl-4,5-dihydro-1H-imidazol-2-yl)phenyl]-2N-(4-chlorophenylaminocarbonyl)-2,3-dihydro-1H-isoindole-1-carboxamide], at most 100 nM; under `O=C(Nc1ccc(-c2cccc[n+]2[O-])cc1)C1c2ccccc2CN1C(=O)Nc1ccc(Cl)cc1` (stereo not drawn) [Example 29, N-[4-(1N-oxo-pyridin-2-yl)phenyl]-2N-(4-chlorophenylaminocarbonyl)-2,3-dihydro-1H-isoindole-1-carboxamide], at most 100 nM. The molecule `CN1CCCN(c2ccc(NC(=O)C3c4ccccc4CN3C(=O)Nc3ccc(Cl)cc3)cc2)CC1` (stereo not drawn) [Example 30, N-[4-(4-methyl-homopiperazinyl)phenyl]-2N-(4-chlorophenylaminocarbonyl)-2,3-dihydro-1H-isoindole-1-carboxamide] came in with a half-inhibitory concentration (IC50) of 100 to 500 nM.

`O=C(Nc1ccc(N2CCOCC2=O)cc1)C1c2ccccc2CN1C(=O)Nc1ccc(Cl)cc1` (stereo not drawn) [Example 31, N-[4-(3-oxo-morpholin-4-yl)phenyl]-2N-(4-chlorophenylaminocarbonyl)-2,3-dihydro-1H-isoindole-1-carboxamide] had an IC50 of at most 100 nM. In the case of `O=C(Nc1ccc(-c2cccc[n+]2[O-])cc1)C1Cc2ccccc2N1C(=O)Nc1ccc(Cl)cc1` (stereo not drawn) [Example 32, N-[4-(1N-oxo-pyridin-2-yl)phenyl]-1N-(4-chlorophenylaminocarbonyl)-indoline-2-carboxamide] it was 100 to 500 nM; in that of `CN1CCCN(c2ccc(NC(=O)[C@H]3Cc4ccccc4CN3C(=O)Nc3ccc(Cl)cc3)cc2)CC1` [Example 33, (3R) N-[4-(4-methyl-homopiperazinyl)]phenyl-2N-(4-chlorophenylaminocarbonyl)-1,2,3,4-tetrahydroisoquinoline-3-carboxamide], at most 100 nM; in that of `CN1CCCN(c2ccc(NC(=O)[C@@H]3Cc4ccccc4CN3C(=O)Nc3ccc(Cl)cc3)cc2)CC1` [Example 34, (3S)N-[4-(4-methyl-homopiperazinyl)]phenyl-2N-(4-chlorophenylaminocarbonyl)-1,2,3,4-tetrahydroisoquinoline-3-carboxamide], 100 to 500 nM. Under `CN1CCCN(c2ccc(NC(=O)[C@H]3Cc4ccccc4CN3C(=O)Nc3ccc(Cl)cc3)c(F)c2)CC1` [Example 35, (3R) N-[4-(4-methyl-homopiperazinyl)-2-fluorophenyl]-2N-(4-chlorophenylaminocarbonyl)-1,2,3,4-tetrahydroisoquinoline-3-carboxamide] stands at most 100 nM; under `O=C(Nc1ccc(-n2ccccc2=O)cc1)[C@H]1Cc2ccccc2CN1C(=O)Nc1ccc(Cl)cc1` [Example 36, (3R) N-[4-(2-pyridon-1-yl)phenyl]-2N-(4-chlorophenylaminocarbonyl)-1,2,3,4-tetrahydroisoquinoline-3-carboxamide], at most 100 nM; under `O=C(Nc1ccc(-n2ccccc2=O)cc1)[C@@H]1Cc2ccccc2CN1C(=O)Nc1ccc(Cl)cc1` [Example 37, (3S)N-[4-(2-pyridon-1-yl)phenyl]-2N-(4-chlorophenylaminocarbonyl)-1,2,3,4-tetrahydroisoquinoline-3-carboxamide], at most 100 nM.
